{"source": "patent US20240293551A1", "about": "“USE OF ST-TYPE LIPID COMPOUNDS IN PREPARATION OF NUCLEIC ACID DELIVERY REAGENT AND RELATED PRODUCT” (INSTITUTE OF BASIC MEDICAL SCIENCES CHINESE ACADEMY OF …, priority 2021, published 2024)", "system": "PGY-sRNA-26", "assay": "In vivo delivery study of lipid-nucleic acid mixture (oral gavage, RT-qPCR of PGY-sRNA-26 in tissues)", "parameters": "species or system mouse", "settings": "C57BL/6 mice, gavage, 100 μg lipid: 10 nmol PGY-sRNA-26, 12 hours", "outline": "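C57BL/6 male mice (~6 weeks, 20-24 g), fasted 12 h, were gavaged with 10 nmol 3′-methylated PGY-sRNA-26 mixed with 100 μg lipid (heated 90° C. 15 min), versus saline or free sRNA (n=4 each). After 12 h, blood and tissues were Trizol-extracted; sRNA quantified by stem-loop RT-qPCR relative to U6.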", "data": [{"smiles": "CC(C)CCC[C@@H](C)[C@H]1CC[C@H]2[C@@H]3CC[C@H]4CCCC[C@]4(C)[C@H]3CC[C@]12C", "note": "[Lipid 653, 5α-cholestane (5R,8R,9S,10S,13R,14S,17R)-10,13-dimethyl-17-[(2R)-6-methylheptan-2-yl]-2,3,4,5,6,7,8,9,11,12,14,15,16,17-tetradecahydro-1H-cyclopenta[a]phenanthrene]", "values": [{"measurement": "delivery efficacy over each tissue and blood tested (broad-spectrum delivery)", "setting": "all tissues and blood tested", "value": "exhibited the best delivery efficacy"}, {"measurement": "oral delivery of single-stranded sRNA nucleic acids into mouse blood", "setting": "blood", "value": "can effectively orally deliver"}, {"measurement": "oral delivery of single-stranded sRNA nucleic acids into mouse brain tissue", "setting": "brain", "value": "can effectively orally deliver"}, {"measurement": "oral delivery of single-stranded sRNA nucleic acids into mouse femur", "setting": "femur", "value": "can effectively orally deliver"}, {"measurement": "oral delivery of single-stranded sRNA nucleic acids into mouse heart tissue", "setting": "heart", "value": "can effectively orally deliver"}, {"measurement": "oral delivery of single-stranded sRNA nucleic acids into mouse intestinal tissue", "setting": "intestine", "value": "can effectively orally deliver"}, {"measurement": "oral delivery of single-stranded sRNA nucleic acids into mouse kidney tissue", "setting": "kidney", "value": "can effectively orally deliver"}, {"measurement": "oral delivery of single-stranded sRNA nucleic acids into mouse liver tissue", "setting": "liver", "value": "can effectively orally deliver"}, {"measurement": "oral delivery of single-stranded sRNA nucleic acids into mouse lung tissue", "setting": "lung", "value": "can effectively orally deliver"}, {"measurement": "oral delivery of single-stranded sRNA nucleic acids into mouse spleen tissue", "setting": "spleen", "value": "can effectively orally deliver"}, {"measurement": "oral delivery of single-stranded sRNA nucleic acids into mouse stomach tissue", "setting": "stomach", "value": "can effectively orally deliver"}]}]}
